Laboratory results: patent US7012072B2, “Pharmaceutical oxaliplatinum preparation for parenteral administration and method for obtaining same” (Debiopharm S.A., priority 2000, dated 2006)

Tests used:
Assay type in all cases: physicochemical
[1] = Preparation of concentrated oxaliplatin solutions in solvent with hydroxylated derivative; settings: solvent with sufficient amount of 1,2-propanediol, glycerol, maltitol, sucrose or inositol
Experimental: One of the co-solvents chosen from 1,2-propanediol, glycerol and maltitol, respectively, is introduced into the receptacle at the same time as or prior to the addition of water to make the volume up to 25 ml, according to the corresponding volume/volume or weight/volume ratios as indicated in the various tables.
After returning to ambient temperature, namely approximately 20° C., a clarifying filtration operation is optionally carried out in order to ensure clarity.

[2] = Wet heat treatment of oxaliplatin solutions in an autoclave, observation after return to ambient temperature; settings: for Observation after storage (black precipitate): degassed with argon; for Observatios: appearance of solution: 24 hours after treatment
Description: The mixtures as obtained by applying the method described in example 1, and according to the relative amounts indicated in table 1, […] well known to a specialist. […]

[3] = Wet heat sterilization, three successive cycles at 80° C., observation after 72 hours at refrigerator temperature; settings: 10 mg/ml, 3 cycles 80° C. ± 2, 30 min, 24 h standing at approx. 20° C.
Experimental: They were then subjected to operations of wet heat sterilization by carrying out three successive cycles of heating at a temperature of 80° C., followed by a return to an ambient temperature of approximately 20° C.
The solutions thus treated were kept, before observation, at refrigerator temperature for 72 hours.

[4] = 10 mg/ml supersaturated, water for injectable preparation, 80° C. ± 2, 30 min

With O=C1[O][Pt]2([NH][C@@H]3CCCC[C@H]3[NH]2)[O]C1=O [Oxaliplatin] the “concentration of oxaliplatin obtained in the preparation” value [1] was “over 7 mg/ml”, the Observation after storage ([2]; 10 mg/ml supersaturated, water for injectable preparation, no co-solvent, 120° C. ± 2, 90 min) was “presence of black precipitate” and the “Observation after storage: appearance of solution” value [2, 4] was “solution has a clear appearance”. For the same compound, the “Observation after storage: precipitate” value [2, 4] was “no presence of precipitate”, the “Observation after storage (black precipitate)” value ([2]; 10 mg/ml, 1,2-propanediol/water 20/20 (V/V), 110° C. ± 2, 120 min) was “presence of” and the “Observation after storage (black precipitate)” value ([2]; 10 mg/ml, 1,2-propanediol/water 20/20 (V/V), 120° C. ± 2, 150 min) was “presence of”. The “Observatios: appearance of solution” value ([2]; 10 mg/ml, 1,2-propanediol/water 50/50 (V/V), 70° C. ± 2, 30 min) was “clear”, the “Observation after storage (black precipitate)” value ([2]; 10 mg/ml, 85% glycerol/water 20/20 (V/V), 110° C. ± 2, 120 min) was “presence of” and the “Observation after storage (black precipitate)” value ([2]; 10 mg/ml, 85% glycerol/water 20/20 (V/V), 120° C. ± 2, 150 min) was “presence of”. For the same compound, the “Observatios: appearance of solution” value ([2]; 10 mg/ml, 85% glycerol/water 50/50 (V/V), 70° C. ± 2, 30 min) was “clear”, the “Observation after storage (black precipitate)” value ([2]; 10 mg/ml, maltitol/water 50% (m/V), 110° C. ± 2, 120 min) was “presence of” and the “Observation after storage (black precipitate)” value ([2]; 10 mg/ml, maltitol/water 50% (m/V), 120° C. ± 2, 150 min) was “presence of”. The “Observatios: appearance of solution” value ([2]; 10 mg/ml, maltitol/water 50% (m/V), 70° C. ± 2, 30 min) was “clear”, the “Observatios: appearance of solution” value ([2]; 12 mg/ml, maltitol/water 30% (m/V), 80° C. ± 2, 30 min) was “clear” and the “Observations: appearance of solution” value ([3]; 1,2-propanediol/water for injectable preparation 50/50 (V/V)) was “clear appearance”. The “Observations: appearance of solution” value ([3]; 85% glycerol/water for injectable preparation 50/50 (V/V)) was “clear appearance” and the “Observations: appearance of solution” value ([3]; maltitol/water for injectable preparation 50% (m/V)) was “clear appearance”.
